In patent publication US20230416258A1, “BENZ[…], AND PREPARATION METHOD THEREFOR AND USE THEREOF” (CHINA PHARMACEUTICAL UNIVERSITY, priority 2020, published 2023):

System: KM mice
Assay: Test for drug-induced disappearance of righting reflex in mice
Assay type: in vivo
Settings: single rapid bolus via tail vein
In short: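 Female KM mice (18–25 g), randomly grouped, given a single rapid bolus via tail vein. Latency (administration to loss of righting reflex) and duration (loss to recovery) recorded.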

| Molecule | Duration (60 mg/kg) | Latency (60 mg/kg) | Duration (30 mg/kg) | Latency (30 mg/kg) | Duration (15 mg/kg) | Latency (15 mg/kg) |
| --- | --- | --- | --- | --- | --- | --- |
| COC(=O)CC[C@@H]1N=C(c2ccccc2Cl)c2cc(Br)ccc2-n2c(SCCN3CCCC3)nnc21 [Compound 121, methyl (S)-3-(8-bromo-6-(2-chlorophenyl)-1-((2-(pyrrolidin-1-yl)ethyl)thio)-4H-benzo[f][1,2,4]triazolo[4,3-a][1,4]diazepin-4-yl)propionate] | 16.67 min | 0.18 min |  |  |  |  |
| COC(=O)CC[C@@H]1N=C(c2ccccc2Cl)c2cc(Cl)ccc2-n2c(SCCN3CCCCC3)nnc21 [Compound 122, methyl (S)-3-(8-chloro-6-(2-chlorophenyl)-1-(2-((piperidin-1-yl)ethyl)thio)-4H-benzo[f][1,2,4]triazolo[4,3-a][1,4]diazepin-4-yl)propionate] |  |  | 28.06 min | 0.30 min |  |  |
| COC(=O)CC[C@@H]1N=C(c2ccccc2F)c2cc(Br)ccc2-n2c(SCCN3CCCCC3)nnc21 [Compound 123, methyl (S)-3-(8-bromo-6-(2-fluorophenyl)-1-(2-((piperidin-1-yl)ethyl)thio)-4H-benzo[f][1,2,4]triazolo[4,3-a][1,4]diazepin-4-yl)propionate] |  |  | 53.03 min | 0.23 min | 1.38 min | 0.30 min |
| COC(=O)CC[C@@H]1N=C(c2ccccc2Cl)c2cc(Cl)ccc2-n2c(SCc3ccncc3)nnc21 [Compound 124, methyl (S)-3-(8-chloro-6-(2-chlorophenyl)-1-(2-((pyridin-4-yl)methyl)thio)-4H-benzo[f][1,2,4]triazolo[4,3-a][1,4]diazepin-4-yl)propionate] |  |  | 13.31 min | 0.23 min | 7.67 min | 0.18 min |
| COC(=O)CC[C@@H]1N=C(c2ccccc2F)c2cc(Br)ccc2-n2c(SCc3ccncc3)nnc21 [Compound 125, methyl (S)-3-(8-bromo-6-(2-fluorophenyl)-1-(2-((pyridin-4-yl)methyl)thio)-4H-benzo[f][1,2,4]triazolo[4,3-a][1,4]diazepin-4-yl)propionate] |  |  | 7.81 min | 0.19 min |  |  |
| COC(=O)CC[C@@H]1N=C(c2ccccc2Cl)c2cc(Cl)ccc2-n2c(SCCN3CCC(F)(F)CC3)nnc21 [Compound 127, methyl (S)-3-(8-chloro-6-(2-chlorophenyl)-1-(2-((4,4-difluoropiperidin-1-yl)ethyl)thio)-4H-benzo[f][1,2,4]triazolo[4,3-a][1,4]diazepin-4-yl)propionate] |  |  | 18.11 min | 0.43 min |  |  |
| COC(=O)CC[C@@H]1N=C(c2ccccc2F)c2cc(Br)ccc2-n2c(SCCN3CCC(F)(F)CC3)nnc21 [Compound 128] |  |  | 7.98 min | 0.42 min |  |  |
| COC(=O)CC[C@@H]1N=C(c2ccccc2Cl)c2cc(Cl)ccc2-n2c(SC(=O)N3CCN(C)CC3)nnc21 [Compound 130, methyl (S)-3-(8-chloro-6-(2-chlorophenyl)-1-(2-(4-methylpiperazine-1-carbonyl)thio)-4H-benzo[f][1,2,4]triazolo[4,3-a][1,4]diazepin-4-yl)propionate] |  |  | 18.27 min | 0.52 min |  |  |
| COC(=O)CC[C@@H]1N=C(c2ccccc2F)c2cc(Br)ccc2-n2c(SC(=O)N3CCN(C)CC3)nnc21 [Compound 131] |  |  | 6.84 min | 0.56 min |  |  |
| CCN(CC)CCCSc1nnc2n1-c1ccc(Cl)cc1C(c1ccccc1Cl)=N[C@H]2CCC(=O)OC [Compound 132, methyl (S)-3-(8-chloro-6-(2-chlorophenyl)-1-(3-((diethylamino)propyl)thio)-4H-benzo[f][1,2,4]triazolo[4,3-a][1,4]diazepin-4-yl)propionate] |  |  | 18.05 min | 0.87 min |  |  |
| COC(=O)CC[C@@H]1N=C(c2ccccc2Cl)c2cc(Cl)ccc2-n2c(SCCN(C)C)nnc21 [Compound 133, methyl (S)-3-(8-chloro-6-(2-chlorophenyl)-1-(2-((dimethylamino)ethyl)thio)-4H-benzo[f][1,2,4]triazolo[4,3-a][1,4]diazepin-4-yl)propionate] |  |  | 2.24 min | 0.26 min |  |  |
| COC(=O)CC[C@@H]1N=C(c2ccccc2F)c2cc(Br)ccc2-n2c(SCCN(C)C)nnc21 [Compound 134, methyl (S)-3-(8-bromo-6-(2-fluorophenyl)-1-(2-((dimethylamino)ethyl)thio)-4H-benzo[f][1,2,4]triazolo[4,3-a][1,4]diazepin-4-yl)propionate] |  |  | 6.54 min | 0.27 min |  |  |
| O=C(CC[C@@H]1N=C(c2ccccc2Cl)c2cc(Cl)ccc2-n2c1n[nH]c2=S)OCCN1CCOCC1 [Compound 137, (S)-3-(8-chloro-6-(2-chlorophenyl)-1-thio-2,4-dihydro-1H-benzo[f][1,2,4]triazolo[4,3-a][1,4]diazepin-4-yl)propionic acid-2-morpholinoethyl ester] |  |  | 21.45 min | 0.67 min |  |  |
| COC(=O)CC[C@@H]1N=C(c2ccccc2Cl)c2cc(Cl)ccc2-n2c(SCCn3ccnc3)nnc21 [Compound 138, methyl (S)-3-(8-chloro-6-(2-chlorophenyl)-1-(2-((1H-imidazol-1-yl)ethyl)thio)-4H-benzo[f][1,2,4]triazolo[4,3-a][1,4]diazepin-4-yl)propionate] |  |  | 6.94 min | 0.27 min |  |  |
| COC(=O)CC[C@@H]1N=C(c2ccccc2F)c2cc(Br)ccc2-n2c(SCCn3ccnc3)nnc21 [Compound 139, methyl (S)-3-(8-bromo-6-(2-fluorophenyl)-1-(2-((1H-imidazol-1-yl)ethyl)thio)-4H-benzo[f][1,2,4]triazolo[4,3-a][1,4]diazepin-4-yl)propionate] |  |  | 19.99 min | 0.38 min |  |  |
| COC(=O)CC[C@@H]1N=C(c2ccccc2Cl)c2cc(Cl)ccc2-n2c(SCCn3cccc3)nnc21 [Compound 140, methyl (S)-3-(8-chloro-6-(2-chlorophenyl)-1-(2-((1H-pyrrol-1-yl)ethyl)thio)-4H-benzo[f][1,2,4]triazolo[4,3-a][1,4]diazepin-4-yl)propionate] |  |  | 21.65 min | 0.45 min |  |  |
| CCN(C)C(=O)Sc1nnc2n1-c1ccc(Cl)cc1C(c1ccccc1Cl)=N[C@H]2CCC(=O)OC [Compound 142, methyl (S)-3-(8-chloro-6-(2-chlorophenyl)-1-((ethyl(methyl)carbamoyl)thio)-4H-benzo[f][1,2,4]triazolo[4,3-a][1,4]diazepin-4-yl)propionate] |  |  | 10.35 min | 0.21 min |  |  |
| COC(=O)CC[C@@H]1N=C(c2ccccc2Cl)c2cc(Cl)ccc2-n2c(SCCC(=O)N(C)C)nnc21 [Compound 143, methyl (S)-3-(8-chloro-6-(2-chlorophenyl)-1-(3-((dimethylamino)-3-oxopropyl)thio)-4H-benzo[f][1,2,4]triazolo[4,3-a][1,4]diazepin-4-yl)propionate] |  |  | 9.62 min | 0.64 min |  |  |
| COC(=O)CC[C@@H]1N=C(c2ccccc2Cl)c2cc(Cl)ccc2-n2c(SCC3=NCCN3)nnc21 [Compound 144, methyl (S)-3-(8-chloro-6-(2-chlorophenyl)-1-(((4,5-dihydro-1H-imidazol-2-yl)methyl)thio)-4H-benzo[f][1,2,4]triazolo[4,3-a][1,4]diazepin-4-yl)propionate] |  |  | 5.32 min | 0.45 min |  |  |
| COC(=O)CC[C@@H]1N=C(c2ccccc2Cl)c2cc(Cl)ccc2-n2c1n[nH]c2=S [Tautomer of compound 2, methyl (S)-3-(8-chloro-6-(2-chlorophenyl)-1-thio-2,4-dihydro-1H-benzo[f][1,2,4]triazolo[4,3-a][1,4]diazepin-4-yl)propionate] |  |  | 10.35 min | 1.10 min |  |  |
| COC(=O)CC[C@@H]1N=C(c2ccccn2)c2cc(Br)ccc2-n2c1n[nH]c2=S [Tautomer of compound 3, methyl (S)-3-(8-bromo-6-(pyridin-2-yl)-1-thio-2,4-dihydro-1H-benzo[f][1,2,4]triazolo[4,3-a][1,4]diazepin-4-yl)propionate] |  |  | 8.27 min | 0.65 min |  |  |
| COC(=O)CC[C@@H]1N=C(c2ccccc2)c2ccccc2-n2c1n[nH]c2=S [Tautomer of compound 5, methyl (S)-3-(6-phenyl-1-thio-2,4-dihydro-1H-benzo[f][1,2,4]triazolo[4,3-a][1,4]diazepin-4-yl)propionate] |  |  | 7.82 min | 0.73 min |  |  |
| COC(=O)CC[C@@H]1N=C(c2ccc(F)cc2)c2ccccc2-n2c1n[nH]c2=S [Tautomer of compound 6, methyl (S)-3-(6-(4-fluorophenyl)-1-thio-2,4-dihydro-1H-benzo[f][1,2,4]triazolo[4,3-a][1,4]diazepin-4-yl)propionate] |  |  | 8.84 min | 0.73 min |  |  |
| COC(=O)CC[C@@H]1N=C(c2ccccc2)c2cc(Cl)ccc2-n2c1n[nH]c2=S [Tautomer of compound 7, methyl (S)-3-(8-chloro-6-phenyl-1-thio-2,4-dihydro-1H-benzo[f][1,2,4]triazolo[4,3-a][1,4]diazepin-4-yl)propionate] |  |  | 9.22 min | 0.95 min |  |  |
| methyl (S)-3-(8-chloro-6-(2-chlorophenyl)-1-(2-((4-methylpiperidin-2-carbonyl)ethyl)thio)-4H-benzo[f][1,2,4]triazolo[4,3-a][1,4]diazepin-4-yl)propionate [Compound 136] |  |  | 17.5 min | 0.36 min |  |  |
